Data published in publication PMC10819430, “Binding Affinity and Mechanism of Six PFAS with Human Serum Albumin: Insights from Multi-Spectroscopy, DFT and Molecular Dynamics Approaches” (Toxics, 2024).
“Also recorded” adds a separate entry of the source. Read-outs that look alike come from different tables or passages of the source.

Tests used:
HSA [1] = target: T1, HSA (Homo sapiens, UniProt P02768); assay: 3D-EEM fluorescence spectra of HSA–PFAS; settings: for 3D-EEM Peak A Position λex/λem / 3D-EEM Peak B Position λex/λem / 3D-EEM Peak A Intensity F / 3D-EEM Peak B Intensity F: HSA 1 × 10^−6, PFAS 1.8 × 10^−5 mol·L^−1; for 3D-EEM Peak A Intensity F: HSA alone 673.66; for 3D-EEM Peak B Intensity F: HSA alone 996.906
T1 construct: HSA (≥96%) and six PFAS were all purchased from Aladdin Chemicals (Shanghai, China); purchased Aladdin Chemicals (Shanghai, China)
Experimental: The 3D-EEM spectra were recorded using specific scanning parameters at the scanning rate of 2400 nm·min^−1, an […] with 5 nm increments, and an emission of 280–550 nm with 2 nm increments. The concentrations of PFAS and HSA were set at 18 × 10^−6 mol·L^−1 and 1 × 10^−6 mol·L^−1, respectively.

[2] = target: T2, Human Serum Albumin (HSA) (Homo sapiens, UniProt P02768); assay: Fluorescence quenching of HSA by PFAS (Stern–Volmer, double logarithmic and Van't Hoff analysis); type: binding; settings: for quenching of HSA fluorescence intensity: PFAS 1.8 × 10^−5 mol·L^−1, HSA 1 × 10^−6 mol·L^−1, 298 K; for Kq (quenching rate constant): τ0 taken as 10^−8 s; for ΔH / ΔS: Van't Hoff, 298–310 K; for affinity for HSA: fluorescence quenching experiments; for main interaction force from thermodynamic analysis: signs of ΔH and ΔS
T2 construct: HSA (≥96%) and six PFAS were all purchased from Aladdin Chemicals (Shanghai, China); purchased Aladdin Chemicals (Shanghai, China)
Experimental: Fluorescence quenching experiments greatly benefit studies on the interactions between ligands and proteins. Initially, 3 mL of HSA stock solution was put into a 10 mm square quartz cuvette. Following that, PFAS stock solution was gradually added to achieve various final concentrations, namely 0, 3, 6, 9, 12, 15, 18 × 10^−6 mol·L^−1. By incrementally increasing the molar ratio of PFAS vs. HSA up to 18, their binding characteristics can be better investigated.
A thermostat (TR-01A, Bishui Corp, Beijing, China) was used to precisely control the solution temperature, which was set at 298, 304, and 310 K. This device includes a temperature controller and a metal heating cuvette module in conjunction with a fluorometer. This thermostat has a temperature range of 20–60 °C (293–333 K) and an accuracy of 0.1 °C Celsius. This step is critical for keeping the experimental conditions stable. Following that, the samples were fluorescence-scanned with a fluorometer (Cary Eclipse, Agilent, CA, USA). The excitation wavelength was set at 275 nm to efficiently stimulate tryptophan (Trp) and tyrosine (Tyr) residues. Additional test parameters include an emission of 275–500 nm, scanning rate of 1200 nm/min and PTV voltage of 700 v. Fluorescence quenching experiments were repeated three times, and the average values were taken for further calculation.
Fluorescence internal filtration (IFE) refers to the phenomenon where the fluorescence intensity decreases during fluorescence measurement due to the absorption of excitation or emission light by sample components (small molecules or proteins) in solution [19, 20]. This phenomenon is more obvious in the samples with a high concentration of adsorbent. A fluorescence correction formula was used in this study to correct the IFE effect on the data, as follows: Fcorr=Fobs×10^Aex+Aem/2 where Fcorr and Fobs are corrected and observed fluorescence emission intensities, respectively, Aex and Aem are UV-vis absorbances at the excitation and emission wavelengths.
The quenching constant can be calculated using the Stern–Volmer Equation (3). The results are shown in Table 2 and Figure 1: F0/F=1+Kqτ0=1+KsvQ where F0 and F refer to HSA fluorescence intensities without and with the quencher (PFAS solution); Kq is the biomacromolecule’s quenching rate constant; τ0 is the average fluorescence lifetime of the fluorescent molecule when the quencher PFAS is absent, usually taken as 10^−8 s; [Q] is the PFAS concentration; Ksv is the Stern–Volmer quenching constant; F0/F is the vertical axis; the Stern–Volmer curves of this system are 298, 304, and 310 K.
The double logarithmic formula can be used to calculate the binding constants and binding site numbers of HSA–PFAS complexes: logF0−F/F=logKb+nlogQ where F0 and F are parameters representing the initial fluorescence intensity and the fluorescence intensity after adding PFAS, respectively. The binding characteristics are represented by the binding constant, Kb, and the number of binding sites, n. The slope of the straight line is the number of binding sites, n, and the binding constant Kb is obtained from the exponent of the straight line’s intercept using the double logarithmic graph. Figure A2 and Table 2 show the calculation results.
The enthalpy change (∆H), entropy change (∆S), and free energy change (∆G) calculated from the Van’t Hoff equation [50] can be used to determine the type of interaction. lnKb=−ΔH/RT+ΔS/R ΔG=ΔH−TΔS=−RTlnKb where R represents the ideal gas constant (8.314 J·mol^−1·K^−1).

HSA [3] = target: T1, HSA; assay: Competitive probe experiment (warfarin, ibuprofen, lidocaine); type: binding
Source text: Competitive probe experiments are commonly used to identify specific binding sites in the structure of proteins. Three probe molecules known to bind to distinct binding sites on HSA were selected: warfarin (subdomain IIA), ibuprofen (subdomain IIIA), and lidocaine (subdomain IIB). These probe molecules would compete with PFAS for the same protein sites when binding with HSA. The potential binding sites can be inferred by monitoring and comparing changes in fluorescence intensity when probe molecules are present.

HSA [4] = target: T1, HSA; assay: Circular dichroism (CD) spectrum, secondary structure of HSA; settings: HSA:PFAS 1:18, 298 K; for HSA secondary structure: β-Sheet: HSA alone 4.9; for HSA secondary structure: β-Turn: HSA alone 16.9; for HSA secondary structure: Random Coil: HSA alone 36.7; for HSA secondary structure: α-Helix: HSA alone 41.6
Source text: CD measurements (190–260 nm) were taken before and after the addition of PFAS to HSA using a J-815 CD spectrometer equipped with a PMT detector (JASCO, Tokyo, Japan). The protein concentration was set at 1 × 10^−6 mol/L, with a fixed HSA-to-PFAS concentration ratio of 1:18. The scanning rate was set to 100 nm/min with 0.5 nm increments, and the photometric mode of HT. Each sample was scanned three times. The blank buffer control was automatically subtracted during the scanning process. All tests were carried out at 298 K. The CONTIN analysis method from the DichroWeb was employed to determine the contents of the protein’s secondary structure.

[5] = human body, cited from earlier work

T1 sequence (P02768 25-609): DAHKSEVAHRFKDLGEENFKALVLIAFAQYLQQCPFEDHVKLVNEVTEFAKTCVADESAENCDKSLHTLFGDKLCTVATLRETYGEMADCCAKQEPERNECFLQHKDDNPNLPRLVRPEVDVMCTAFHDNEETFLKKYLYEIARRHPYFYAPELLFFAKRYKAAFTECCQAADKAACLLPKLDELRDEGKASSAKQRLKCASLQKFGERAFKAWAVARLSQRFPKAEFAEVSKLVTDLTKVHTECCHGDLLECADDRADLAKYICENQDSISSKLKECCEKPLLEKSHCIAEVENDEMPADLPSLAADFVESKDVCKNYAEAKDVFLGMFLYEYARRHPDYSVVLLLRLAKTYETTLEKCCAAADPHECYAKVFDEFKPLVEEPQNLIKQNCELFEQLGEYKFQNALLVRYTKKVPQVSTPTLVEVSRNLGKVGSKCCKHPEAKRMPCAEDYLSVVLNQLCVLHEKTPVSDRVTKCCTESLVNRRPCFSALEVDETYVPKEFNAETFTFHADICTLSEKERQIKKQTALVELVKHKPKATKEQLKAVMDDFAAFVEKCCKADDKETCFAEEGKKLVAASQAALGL
T2 sequence (P02768 25-609): as above

Compound | 3D-EEM Peak A Position λex/λem (HSA [1]) | 3D-EEM Peak B Position λex/λem (HSA [1]) | 3D-EEM Peak A Intensity F (HSA [1]) [a.u.] | 3D-EEM Peak B Intensity F (HSA [1]) [a.u.] | fluorescence quenching mechanism [2] | quenching of HSA fluorescence intensity [2] [%] | KSV (Stern–Volmer quenching constant) ([2]; T = 298 K) | n (number of binding sites) ([2]; T = 298 K) | ΔG ([2]; T = 298 K) [kcal/mol] | Kq (quenching rate constant) ([2]; T = 298 K) | KSV (Stern–Volmer quenching constant) ([2]; T = 304 K) | n (number of binding sites) ([2]; T = 304 K) | ΔG ([2]; T = 304 K) [kcal/mol] | Kq (quenching rate constant) ([2]; T = 304 K) | KSV (Stern–Volmer quenching constant) ([2]; T = 310 K) | n (number of binding sites) ([2]; T = 310 K) | ΔG ([2]; T = 310 K) [kcal/mol] | Kq (quenching rate constant) ([2]; T = 310 K) | ΔH [2] [kcal/mol] | ΔS [2] [J·mol^−1·K^−1] | also measured
O=C(O)C(F)(F)C(F)(F)C(F)(F)C(F)(F)C(F)(F)C(F)(F)C(F)(F)C(F)(F)F [PFNA, Perfluorononanoic Acid] | 280/329 | 230/310 | 418.74 | 800.96 | static quenching | 30.6 | 2.52 ± 0.10 × 10^4 L·mol^−1 | 1.51 ± 0.06 | -9.398 | 2.52 ± 0.10 × 10^12 L·mol^−1·s^−1 | 2.35 ± 0.11 × 10^4 L·mol^−1 | 1.18 ± 0.03 | -7.376 | 2.35 ± 0.11 × 10^12 L·mol^−1·s^−1 | 1.27 ± 0.04 × 10^4 L·mol^−1 | 1.10 ± 0.04 | -7.087 | 1.27 ± 0.04 × 10^12 L·mol^−1·s^−1 | -66.503 ± 1.3 | −805.8 ± 13.8 | reduction of 3D-EEM peak A intensity (HSA [1]; after binding with HSA): 37.8%; reduction of 3D-EEM peak B intensity (HSA [1]; after binding with HSA): 19.7%; HSA fluorescence peak position after PFAS addition (blue shift from 337 nm) ([2]; as the concentration of PFAS increases): 317 nm; affinity for HSA [2]: high affinity; main interaction force from thermodynamic analysis [2]: hydrogen bonds or van der Waals interactions; also recorded: hydrogen bonds or van der Waals forces; φ (rate of decrease in Kb) (HSA [3]; ibuprofen probe): 13.8%; φ (rate of decrease in Kb) (HSA [3]; lidocaine probe): 43.9%; φ (rate of decrease in Kb) (HSA [3]; warfarin probe): 98.3%; HSA secondary structure: β-Sheet (HSA [4]): 7.6%; HSA secondary structure: β-Turn (HSA [4]): 15.1%; HSA secondary structure: Random Coil (HSA [4]): 41.2%; HSA secondary structure: α-Helix (HSA [4]): 36.2%
O=C(O)C(F)(F)OC(F)(F)C(F)(F)OC(F)(F)C(F)(F)OC(F)(F)F [PFO3DA, Perfluoro-3,6,9-trioxadecanoic Acid] | 280/329 | 230/325 | 525.07 | 886.91 | static quenching | 15.3 | 1.05 ± 0.06 × 10^4 L·mol^−1 | 1.25 ± 0.03 | -7.091 | 1.05 ± 0.06 × 10^12 L·mol^−1·s^−1 | 1.03 ± 0.06 × 10^4 L·mol^−1 | 1.33 ± 0.02 | -6.479 | 1.03 ± 0.06 × 10^12 L·mol^−1·s^−1 | 0.87 ± 0.04 × 10^4 L·mol^−1 | 1.10 ± 0.03 | -6.348 | 0.87 ± 0.04 × 10^12 L·mol^−1·s^−1 | -25.471 ± 0.937 | −259.2 ± 9.4 | affinity for HSA [2]: high affinity; main interaction force from thermodynamic analysis [2]: hydrogen bonds or van der Waals interactions; also recorded: hydrogen bonds or van der Waals forces; φ (rate of decrease in Kb) (HSA [3]; ibuprofen probe): 25.8%; φ (rate of decrease in Kb) (HSA [3]; lidocaine probe): 11.8%; φ (rate of decrease in Kb) (HSA [3]; warfarin probe): 95.1%; HSA secondary structure: β-Sheet (HSA [4]): 5.8%; HSA secondary structure: β-Turn (HSA [4]): 17.3%; HSA secondary structure: Random Coil (HSA [4]): 40.6%; HSA secondary structure: α-Helix (HSA [4]): 36.4%
O=S(=O)(O)C(F)(F)C(F)(F)C(F)(F)C(F)(F)C(F)(F)C(F)(F)C(F)(F)C(F)(F)F [PFOS, Perfluorooctanesulfonic acid] |  |  |  |  |  |  |  |  |  |  |  |  |  |  |  |  |  |  |  |  | average half-life ([5]; study on 19 PFAS): ~4.52 years; average half-life [5]: 5.4 years
